Measured values: BindingDB's records for doi:10.1021/jm960794l (Institute of Cancer Research, 1997)

Assay: Cytotoxicity in T79-A3 (NR-positive) cell lines

SMILES: NC(=O)c1c([N+](=O)[O-])ccc(N(CCCl)CCCl)c1[N+](=O)[O-] [3-[Bis-(2-chloro-ethyl)-amino]-2,6-dinitro-benzamide]
- IC50: > 1000 µM

SMILES: NC(=O)c1cc(N(CCI)CCI)c([N+](=O)[O-])cc1[N+](=O)[O-] [5-(bis(2-iodoethyl)amino)-2,4-dinitrobenzamide]
- IC50: 0.23 µM

SMILES: NC(=O)c1cc(N(CCCl)CCCl)c([N+](=O)[O-])cc1[N+](=O)[O-]
- IC50: 15 µM

SMILES: O=C(NCC(O)CO)c1cc([N+](=O)[O-])cc([N+](=O)[O-])c1N(CCI)CCI (stereo unspecified) [2-[Bis-(2-iodo-ethyl)-amino]-N-(2,3-dihydroxy-propyl)-3,5-dinitro-benzamide]
- IC50: 4 µM

SMILES: CN(C)CCNC(=O)c1c([N+](=O)[O-])ccc(N(CCCl)CCCl)c1[N+](=O)[O-] [3-[Bis-(2-chloro-ethyl)-amino]-N-(2-dimethylamino-ethyl)-2,6-dinitro-benzamide]
- IC50: 895 µM

SMILES: NC(=O)c1cc(N2CC2)c([N+](=O)[O-])cc1[N+](=O)[O-]
- IC50: 0.89 µM

SMILES: CS(=O)(=O)CCN(CCCl)c1cc(C(N)=O)c([N+](=O)[O-])cc1[N+](=O)[O-] [5-[(2-Chloro-ethyl)-(2-methanesulfonyl-ethyl)-amino]-2,4-dinitro-benzamide]
- IC50: 3.4 µM

SMILES: O=C(NCC(O)CO)c1cc(N(CCI)CCI)c([N+](=O)[O-])cc1[N+](=O)[O-] (stereo unspecified) [5-(bis(2-iodoethyl)amino)-N-(2,3-dihydroxypropyl)-2,4-dinitrobenzamide]
- IC50: 1.9 µM

SMILES: NC(=O)c1cc([N+](=O)[O-])cc([N+](=O)[O-])c1N(CCI)CCI [2-[Bis-(2-iodo-ethyl)-amino]-3,5-dinitro-benzamide]
- IC50: 0.1 µM

SMILES: O=C(NCC(O)CO)c1cc(N(CCCl)CCCl)c([N+](=O)[O-])cc1[N+](=O)[O-] (stereo unspecified) [5-[Bis-(2-chloro-ethyl)-amino]-N-(2,3-dihydroxy-propyl)-2,4-dinitro-benzamide]
- IC50: 89 µM

SMILES: NC(=O)c1cc(N(CCBr)CCBr)c([N+](=O)[O-])cc1[N+](=O)[O-] [5-(bis(2-bromoethyl)amino)-2,4-dinitrobenzamide]
- IC50: 0.25 µM

SMILES: CS(=O)(=O)CCN(CCS(C)(=O)=O)c1cc(C(N)=O)c([N+](=O)[O-])cc1[N+](=O)[O-] [5-[Bis-(2-methanesulfonyl-ethyl)-amino]-2,4-dinitro-benzamide]
- IC50: 9.3 µM

SMILES: NC(=O)c1cc([N+](=O)[O-])cc([N+](=O)[O-])c1N(CCCl)CCCl [2-[Bis-(2-chloro-ethyl)-amino]-3,5-dinitro-benzamide]
- IC50: 7.5 µM

SMILES: O=C(NCC(O)CO)c1cc([N+](=O)[O-])cc([N+](=O)[O-])c1N(CCCl)CCCl (stereo unspecified) [2-[Bis-(2-chloro-ethyl)-amino]-N-(2,3-dihydroxy-propyl)-3,5-dinitro-benzamide]
- IC50: 13 µM

SMILES: NC(=O)c1cc([N+](=O)[O-])cc([N+](=O)[O-])c1N(CCBr)CCBr [2-[Bis-(2-bromo-ethyl)-amino]-3,5-dinitro-benzamide]
- IC50: 0.19 µM

SMILES: CS(=O)(=O)c1cc([N+](=O)[O-])c(C(N)=O)cc1N(CCCl)CCCl [5-[Bis-(2-chloro-ethyl)-amino]-4-methanesulfonyl-2-nitro-benzamide]
- IC50: 58 µM
